Structures are written as SMILES. Where two headings read alike, the source gives them in different places.

One may read the inhibition as the change of the read-out against control, counted positive when it falls.

The target of assay [1] is T1, human recombinant histamine H2 receptor (Homo sapiens, UniProt P25021).
T1 construct: expressed in transfected cells; host or cells: CHO-K1 cells
The assay is described as follows: Histamine H2 radioligand binding ([125I]aminopotentidine). The note with it: read-out: Histamine Binding (1 μM) H2, percent inhibition of specific binding. Here is the method: To evaluate in radioligand binding assays the activity of compounds of the invention, human recombinant histamine H2 receptor expressed in Chinese hamster ovary (CHO) K1 cells (Ruat, M., Proc. Natl. Acad. Sci. USA. 87(5):1658, 1990) in a 50 mM Phosphate buffer, pH 7.4 was used. Compounds of the invention were incubated with 0.1 nM [^125I]aminopotentidine for 120 minutes at 25° C. Non-specific binding was estimated in the presence of 3 μM Tiotidine. Receptor proteins were filtered and washed, the filters were then counted to determine [^125I]Aminopotentidine specifically bound. Compounds were screened at 1 μM, using 1% DMSO as vehicle. Biochemical assay results are presented as the percent inhibition of specific binding in Table 5.

Assay [2] deals with T2, human recombinant adrenergic α1D receptor (Homo sapiens, UniProt P25100).
T2 construct: expressed in transfected cells; host or cells: HEK-293 cells
T2 sequence (P25100 1-572): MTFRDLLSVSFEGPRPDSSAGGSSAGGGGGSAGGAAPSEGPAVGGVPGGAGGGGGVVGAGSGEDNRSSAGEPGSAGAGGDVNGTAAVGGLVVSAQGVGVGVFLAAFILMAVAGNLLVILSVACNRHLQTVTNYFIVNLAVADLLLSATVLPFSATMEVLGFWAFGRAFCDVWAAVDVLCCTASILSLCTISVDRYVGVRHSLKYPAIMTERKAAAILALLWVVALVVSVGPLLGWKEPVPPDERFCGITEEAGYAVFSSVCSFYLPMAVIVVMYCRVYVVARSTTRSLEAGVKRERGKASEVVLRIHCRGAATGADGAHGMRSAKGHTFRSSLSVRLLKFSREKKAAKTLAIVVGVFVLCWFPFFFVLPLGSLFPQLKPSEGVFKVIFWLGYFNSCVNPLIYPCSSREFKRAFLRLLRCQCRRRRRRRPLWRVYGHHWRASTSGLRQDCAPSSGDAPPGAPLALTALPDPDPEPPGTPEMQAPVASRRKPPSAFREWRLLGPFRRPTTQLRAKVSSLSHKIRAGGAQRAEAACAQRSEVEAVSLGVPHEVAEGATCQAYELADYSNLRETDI
Briefly: Adrenergic α1D radioligand binding ([3H]Prozosin). The note with it: read-out: Adrenergic (1 μM) α1D, percent inhibition of specific binding. The procedure: To evaluate in radioligand binding assays the activity of compounds of the invention, human recombinant adrenergic α1D receptor expressed in human embryonic kidney (HEK-293) cells (Kenny, B. A. et al. Br. J. Pharmacol. 115(6):981, 1995) in a 50 mM Tris-HCl buffer, pH 7.4, was used. Compounds of invention were incubated with 0.6 nM [^3H]Prozosin for 60 minutes at 25° C. Non-specific binding was estimated in the presence of 10 μM phentolamine. Receptor proteins were filtered and washed, the filters were then counted to determine [^3H]Prozosin specifically bound. Compounds were screened at 1 μM or lower, using 1% DMSO as vehicle. Biochemical assay results are presented as the percent inhibition of specific binding in Table 6.

Assay [3] has as its target T3, human recombinant adrenergic α2B receptor (Homo sapiens, UniProt P18089).
T3 construct: expressed in transfected cells; host or cells: CHO-K1 cells
T3 sequence (P18089 1-450): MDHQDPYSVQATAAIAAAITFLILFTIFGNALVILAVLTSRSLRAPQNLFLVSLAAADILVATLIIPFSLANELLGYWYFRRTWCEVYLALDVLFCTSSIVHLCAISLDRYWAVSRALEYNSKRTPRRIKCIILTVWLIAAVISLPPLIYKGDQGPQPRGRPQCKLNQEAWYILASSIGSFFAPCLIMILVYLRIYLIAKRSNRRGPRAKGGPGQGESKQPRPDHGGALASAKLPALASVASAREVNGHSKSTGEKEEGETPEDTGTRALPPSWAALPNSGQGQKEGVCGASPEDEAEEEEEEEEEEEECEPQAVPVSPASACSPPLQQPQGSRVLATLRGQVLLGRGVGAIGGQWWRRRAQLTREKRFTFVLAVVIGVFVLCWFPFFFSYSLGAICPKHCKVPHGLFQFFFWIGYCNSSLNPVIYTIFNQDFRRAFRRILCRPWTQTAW
Briefly: Adrenergic α2B radioligand binding ([3H]Rauwolscine). The note with it: read-out: Adrenergic (1 μM) α2B, percent inhibition of specific binding. The procedure: To evaluate in radioligand binding assays the activity of compounds of the invention, human recombinant adrenergic α2B receptor expressed in Chinese hamster ovary (CHO-K1) cells (Uhlen S et al. Eur. J. Pharmacol. 343(1):93, 1998) in a modified Tris-HCl buffer (50 mM Tris-HCl, pH 7.4, 12.5 mM MgCl2, 1 mM EDTA, 0.2% BSA) was used. Compounds of the invention were incubated with 2.5 nM [3H]Rauwolscine for 60 minutes at 25° C. Non-specific binding was estimated in the presence of 10 μM Prozosin. Receptor proteins were filtered and washed, the filters were then counted to determine [^3H]Rauwolscine specifically bound. Compounds were screened at 1 μM or lower, using 1% DMSO as vehicle. Biochemical assay results are presented as the percent inhibition of specific binding in Table 6.

The mark [4] stands for this setting: compound at 1 μM, HEK-293 cells.

T1 sequence (P25021 whole entry): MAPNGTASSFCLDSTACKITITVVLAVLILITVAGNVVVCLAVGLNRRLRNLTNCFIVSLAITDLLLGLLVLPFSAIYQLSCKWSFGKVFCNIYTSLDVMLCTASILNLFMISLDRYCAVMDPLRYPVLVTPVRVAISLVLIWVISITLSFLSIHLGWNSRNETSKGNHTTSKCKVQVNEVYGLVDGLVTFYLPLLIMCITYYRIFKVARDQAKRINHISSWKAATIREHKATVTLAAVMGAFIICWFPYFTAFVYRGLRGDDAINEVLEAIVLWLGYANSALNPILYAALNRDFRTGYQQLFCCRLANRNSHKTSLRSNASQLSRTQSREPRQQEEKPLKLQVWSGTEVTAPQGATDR

As for `CCOC(=O)CCn1c2c(c3cc(C)ccc31)CN(C)CC2` [CD1, ethyl 3-(1,2,3,4-tetrahydro-2,8-dimethylpyrido[4,3-b]indol-5-yl)propanoate], the inhibition at 1 µM is 35% in assay [1] (compound at 1 μM, CHO K1 cells); 54% in assay [2] (setting [4]); 95% in assay [3] (compound at 1 μM, CHO-K1 cells).
Taken in the same sequence, the figures for `CCOC(=O)CCn1c2c(c3cc(Cl)ccc31)CN(C)CC2` [CD17, ethyl 3-(8-chloro-1,2,3,4-tetrahydro-2-methylpyrido[4,3-b]indol-5-yl)propanoate] were 46%, 70% and 99%.
As for `CN1CCc2c(c3cc(Cl)ccc3n2CC(=O)O)C1` [CD46, 2-(8-chloro-1,2,3,4-tetrahydro-2-methylpyrido[4,3-b]indol-5-yl)acetic acid], the inhibition at 1 µM in assay [1] (compound at 1 μM, CHO K1 cells) was -3%; in assay [2] (setting [4]), 10%; in assay [3] (compound at 1 μM, CHO-K1 cells), 35%.
Taken in the same sequence, the figures for `Cc1ccc2c(c1)c1c(n2CCC(=O)O)CCN(C)C1` [CD47, 3-(1,2,3,4-tetrahydro-2,8-dimethylpyrido[4,3-b]indol-5-yl)propanoic acid] were 16%, 6% and 24%.
In the same order, the values of `CN1CCc2c(c3cc(Cl)ccc3n2CCC(=O)O)C1` [CD55, 3-(8-chloro-1,2,3,4-tetrahydro-2-methylpyrido[4,3-b]indol-5-yl)propanoic acid] are -2%, 14% and 10%.
Take `CCOC(=O)Cn1c2c(c3cc(C)ccc31)CN(C)CC2` [CD57, ethyl 2-(1,2,3,4-tetrahydro-2,8-dimethylpyrido[4,3-b]indol-5-yl)acetate]: the inhibition at 1 µM in assay [1] (compound at 1 μM, CHO K1 cells) was 28%; in assay [2] (setting [4]), 39%; in assay [3] (compound at 1 μM, CHO-K1 cells), 65%.
As for `Cc1ccc2c(c1)c1c(n2CC(=O)O)CCN(C)C1` [CD58, 2-(1,2,3,4-tetrahydro-2,8-dimethylpyrido[4,3-b]indol-5-yl)acetic acid], the inhibition at 1 µM is 5% in assay [1] (compound at 1 μM, CHO K1 cells); 0% in assay [2] (setting [4]); -6% in assay [3] (compound at 1 μM, CHO-K1 cells).
In the same order, the values of `Cc1ccc2c(c1)c1c(n2CC#N)CCN(C)C1` [CD61, 2-(1,2,3,4-tetrahydro-2,8-dimethylpyrido[4,3-b]indol-5-yl)acetonitrile] are 15%, 74% and 89%.
Regarding `Cc1ccc2c(c1)c1c(n2CCN)CCN(C)C1` [CD62, 2-(1,2,3,4-tetrahydro-2,8-dimethylpyrido[4,3-b]indol-5-yl)ethanamine], the inhibition at 1 µM turned out to be 65% in assay [1] (compound at 1 μM, CHO K1 cells); 34% in assay [2] (setting [4]); 32% in assay [3] (compound at 1 μM, CHO-K1 cells).
In the same order, the values of `C#CCn1c2c(c3cc(C)ccc31)CN(C)CC2` [CD73, 2,8-dimethyl-5-(prop-2-ynyl)-2,3,4,5-tetrahydro-1H-pyrido[4,3-b]indole] are 19%, 57% and 101%.
As to `CN1CCc2c(c3cc(Cl)ccc3n2CCCO)C1` [CD87, 3-(8-chloro-2-methyl-3,4-dihydro-1H-pyrido[4,3-b]indol-5(2H)-yl)propan-1-ol], the inhibition at 1 µM came out at 18% in assay [1] (compound at 1 μM, CHO K1 cells); 75% in assay [2] (setting [4]); 103% in assay [3] (compound at 1 μM, CHO-K1 cells).
As to `CN1CCc2c(c3cc(Cl)ccc3n2CCBr)C1` [CD88, 5-(2-bromoethyl)-8-chloro-2-methyl-2,3,4,5-tetrahydro-1H-pyrido[4,3-b]indole], the figures for the inhibition at 1 µM in assay [1], in assay [2] and in assay [3] were 64%, 94% and 104%, respectively.
Consider `CN1CCc2c(c3cc(Cl)ccc3n2CCO)C1` [CD89, 2-(8-chloro-2-methyl-3,4-dihydro-1H-pyrido[4,3-b]indol-5(2H)-yl)ethanol], for which the inhibition at 1 µM in assay [1] (compound at 1 μM, CHO K1 cells) worked out at 14%; in assay [2] (setting [4]), 69%; in assay [3] (compound at 1 μM, CHO-K1 cells) it was 100%.
Taken in the same sequence, the figures for `Cc1ccc2c(c1)c1c(n2CCO)CCN(C)C1` [CD90, 2-(2,8-dimethyl-3,4-dihydro-1H-pyrido[4,3-b]indol-5(2H)-yl)ethanol] were 11%, 23% and 61%.
In the case of `Cc1ccc2c(c1)c1c(n2CCBr)CCN(C)C1` [CD91, 5-(2-bromoethyl)-2,8-dimethyl-2,3,4,5-tetrahydro-1H-pyrido[4,3-b]indole], the inhibition at 1 µM in assay [1] (compound at 1 μM, CHO K1 cells) worked out at 65%; in assay [2] (setting [4]), 88%; in assay [3] (compound at 1 μM, CHO-K1 cells) it was 102%.
In the same order, the values of `Cc1ccc2c(c1)c1c(n2CCC#N)CCN(C)C1` [CD92, 3-(2,8-dimethyl-3,4-dihydro-1H-pyrido[4,3-b]indol-5(2H)-yl)propanenitrile] are 8%, 78% and 94%.
As for `CN1CCc2c(c3cc(Cl)ccc3n2CCC#N)C1` [CD94, 3-(8-chloro-2-methyl-3,4-dihydro-1H-pyrido[4,3-b]indol-5(2H)-yl)propanenitrile], the inhibition at 1 µM in assay [1] (compound at 1 μM, CHO K1 cells) was 2%; in assay [2] (setting [4]), 74%; in assay [3] (compound at 1 μM, CHO-K1 cells), 86%.
Taken in the same sequence, the figures for `CNC(=O)CCn1c2c(c3cc(C)ccc31)CN(C)CC2` [Compound 1, 3-(1,2,3,4-tetrahydro-2,8-dimethylpyrido[4,3-b]indol-5-yl)-N-methylpropanamide] were 8%, 20% and 51%.
In the same order, the values of `CCNC(=O)CCn1c2c(c3cc(C)ccc31)CN(C)CC2` [Compound 2, N-ethyl-3-(1,2,3,4-tetrahydro-2,8-dimethylpyrido[4,3-b]indol-5-yl)propanamide] are 5%, 17% and 55%.
With `Cc1ccc2c(c1)c1c(n2CCC(=O)NC2CCCCC2)CCN(C)C1` [Compound 3, N-cyclohexyl-3-(1,2,3,4-tetrahydro-2,8-dimethylpyrido[4,3-b]indol-5-yl)propanamide], the inhibition at 1 µM is 23% in assay [1] (compound at 1 μM, CHO K1 cells); 45% in assay [2] (setting [4]); 80% in assay [3] (compound at 1 μM, CHO-K1 cells).
For `Cc1ccc2c(c1)c1c(n2CCC(=O)NC2CCCC2)CCN(C)C1` [Compound 4, N-cyclopentyl-3-(1,2,3,4-tetrahydro-2,8-dimethylpyrido[4,3-b]indol-5-yl)propanamide], the inhibition at 1 µM amounted to 20% in assay [1] (compound at 1 μM, CHO K1 cells); 64% in assay [2] (setting [4]); 93% in assay [3] (compound at 1 μM, CHO-K1 cells).

(Values after patent US9115137B2, “2,3,4,5-tetrahydro-1H-pyrido[4,3-B]indole compounds and methods of use thereof” (priority 2008, dated 2015).)
